Experiment: general anesthesia assisted opiate detoxification with high-rate opiod antagonist infusion
Assay type: in vivo, patient
Description: Treatment begins by providing the patient with Valium, Xanax and Trazedone, which are taken orally. The patient's vitals are then monitored using such equipment as an electrocardiogram, pulse oxymeter, blood pressure monitor, ETCO2 monitor, oxygen sensor, and tidol volume monitor. An intravenous (IV) line is then set-up and general anesthesia is induced, preferably using Valium, Propofol and Mivacron. These anesthetizing agents are suited to facilitate endotracheal (ET) intubation.
Once the anesthesia takes effect, an endotracheal tube is appropriately placed through the patient's oral cavity and the patient retrieves to spontaneous respirations over the next few minutes. A Precedex infusion is then started, preferably at […], to achieve cardiovascular stability. Next antiemetics and antiperistaltic agents are then administered. In accordance with the preferred method the antiemetics and antiperistaltic agents comprise dexamethazone somatostatin and robinul; other similar agents can be employed. An antihistamine agent, e.g., Benedryl, is then given.
Next, a Naloxone (or its generic counterpart Narcane) infusion is started at rate of 0.6 mg/kg/hr for one hour, i.e., 0.6 mg/hr per unit of the patient's metric weight. In accordance with the present invention, Naloxone is administered at rate greater than 1.5 mg/hr. […]

Structure (SMILES): C=CCN1CC[C@]23c4c5ccc(O)c4O[C@H]2C(=O)CC[C@@]3(O)[C@H]1C5 [Naloxone]
- medical risk to the patient of high-rate Naloxone administration (infusion 0.6 mg/kg/hr for one hour (30 mg/hr for 50 kg, approximately 50 mg/hr for 75 kg), patient anesthetized): does not expose a patient to a severe medical risk
- risk to the patient of Naloxone administration (rate of 1.4 mg/kg/hr): without exposing the patient to unnecessary risks
